Source: PubChem BioAssay (NCI)
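Abbreviation: GI50, concentration required for 50% inhibition of growth. TGI marks complete inhibition of growth.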

Columns and labels:
Assay in all cases: NCI anticancer screen, dose series, 384-well format
NCI-H23 lung = tested on: NCI-H23 lung
NCI-H322M lung = tested on: NCI-H322M lung
NCI-H460 NSCLC = tested on: NCI-H460 NSCLC
NCI-H522 lung = tested on: NCI-H522 lung
NCI/ADR-RES ovarian = tested on: NCI/ADR-RES ovarian
OVCAR-3 ovarian = tested on: OVCAR-3 ovarian
OVCAR-4 ovarian = tested on: OVCAR-4 ovarian
OVCAR-5 ovarian = tested on: OVCAR-5 ovarian
PC-3 prostate = tested on: PC-3 prostate
RPMI-8226 leukemia = tested on: RPMI-8226 leukemia
RXF 393 renal = tested on: RXF 393 renal
SF-268 CNS = tested on: SF-268 CNS
SF-295 CNS = tested on: SF-295 CNS
SF-539 CNS = tested on: SF-539 CNS
SK-MEL-2 melanoma = tested on: SK-MEL-2 melanoma
SK-MEL-28 melanoma = tested on: SK-MEL-28 melanoma
SK-MEL-5 melanoma = tested on: SK-MEL-5 melanoma
SK-OV-3 ovarian = tested on: SK-OV-3 ovarian
SN12C renal = tested on: SN12C renal
SNB-19 CNS = tested on: SNB-19 CNS
SNB-75 CNS = tested on: SNB-75 CNS
SR leukemia = tested on: SR leukemia
SW-620 colon = tested on: SW-620 colon
T-47D breast = tested on: T-47D breast
TK-10 renal = tested on: TK-10 renal
U251 glioblastoma = tested on: U251 glioblastoma
UACC-257 melanoma = tested on: UACC-257 melanoma
UACC-62 melanoma = tested on: UACC-62 melanoma
UO-31 renal = tested on: UO-31 renal

Compound: NC(=O)c1ccc2nc(-c3ccc(Oc4ccc(Cl)cc4)cc3)[nH]c2c1
- GI50 (NCI-H23 lung): 20.1 µM
- TGI (NCI-H23 lung): 76 µM
- GI50 (NCI-H322M lung): 15.3 µM
- TGI (NCI-H322M lung): 38.6 µM
- GI50 (NCI-H460 NSCLC): 14.8 µM
- TGI (NCI-H460 NSCLC): 29.1 µM
- GI50 (NCI-H522 lung): 14.9 µM
- TGI (NCI-H522 lung): 46.2 µM
- GI50 (NCI/ADR-RES ovarian): 23.5 µM
- TGI (NCI/ADR-RES ovarian): 74.7 µM
- GI50 (OVCAR-3 ovarian): 12.1 µM
- TGI (OVCAR-3 ovarian): 25.4 µM
- GI50 (OVCAR-4 ovarian): 11.4 µM
- TGI (OVCAR-4 ovarian): 37.1 µM
- GI50 (OVCAR-5 ovarian): 23.6 µM
- TGI (OVCAR-5 ovarian): > 100 µM
- GI50 (PC-3 prostate): 16 µM
- TGI (PC-3 prostate): 34.6 µM
- GI50 (RPMI-8226 leukemia): 15.2 µM
- TGI (RPMI-8226 leukemia): 29.1 µM
- GI50 (RXF 393 renal): 10.6 µM
- TGI (RXF 393 renal): 27.7 µM
- GI50 (SF-268 CNS): 15.9 µM
- TGI (SF-268 CNS): 56.2 µM
- GI50 (SF-295 CNS): 13.5 µM
- TGI (SF-295 CNS): 30.8 µM
- GI50 (SF-539 CNS): 17.5 µM
- TGI (SF-539 CNS): 45.1 µM
- GI50 (SK-MEL-2 melanoma): 33.7 µM
- TGI (SK-MEL-2 melanoma): 53.6 µM
- GI50 (SK-MEL-28 melanoma): 22.2 µM
- TGI (SK-MEL-28 melanoma): 80 µM
- GI50 (SK-MEL-5 melanoma): 13.6 µM
- TGI (SK-MEL-5 melanoma): 28.1 µM
- GI50 (SK-OV-3 ovarian): 24.8 µM
- TGI (SK-OV-3 ovarian): 58.7 µM
- GI50 (SN12C renal): 17.4 µM
- TGI (SN12C renal): 45.8 µM
- GI50 (SNB-19 CNS): 14.9 µM
- TGI (SNB-19 CNS): 35.4 µM
- GI50 (SNB-75 CNS): 22.3 µM
- TGI (SNB-75 CNS): 58.1 µM
- GI50 (SR leukemia): 3.77 µM
- TGI (SR leukemia): 14.1 µM
- GI50 (SW-620 colon): 15.4 µM
- TGI (SW-620 colon): 63.2 µM
- GI50 (T-47D breast): 11.6 µM
- TGI (T-47D breast): 29.5 µM
- GI50 (TK-10 renal): 23.3 µM
- TGI (TK-10 renal): > 100 µM
- GI50 (U251 glioblastoma): 12.3 µM
- TGI (U251 glioblastoma): 26.7 µM
- GI50 (UACC-257 melanoma): 16.2 µM
- TGI (UACC-257 melanoma): 35.1 µM
- GI50 (UACC-62 melanoma): 25.2 µM
- TGI (UACC-62 melanoma): 75.1 µM
- GI50 (UO-31 renal): 16.9 µM
- TGI (UO-31 renal): 44.5 µM
